# Measured values: patent US20240082342A1, “PEPTIDE THERAPEUTICS FOR INCREASING LUNG CELL VIABILITY” (BOARD OF REGENTS, THE UNIVERSITY OF TEXAS SYSTEM, priority 2018, published 2024)
# Entries after “also recorded” stand apart in the source; their conditions may differ.
# Tests used:
# [1] = tested on: ATII cells and BALF of IL-17A treated mice; experiment: IL-17A-induced lung injury in mice; format: in vivo, mouse; details: for A2EC p53, PAI-1 and apoptosis: WT mice exposed to IL-17A
# Method: IL-17A is induced in passive tobacco smoke (PTS) exposed lung injury. […] Further, IL-17A induced ^p15Sp53 was inhibited following treatment of mice CSP7 when compared with those treated with saline and control peptide. To further test whether IL-17A induced ^p15Sp53 alters PAI-1 expression and ATII apoptosis, ATII cells of IL-17A treated mice for PAI-1 and apoptotic markers were analyzed. IL-17A induced the expression of PAI-1 and cl.Cas-3, and inhibited Sirt-1 expression in ATII cells. […] In addition, CSP7 treatment found to inhibit serine phosphorylation of p53 by neutralizing elevated IL-17A due to PTS exposure.
# To test the importance of miR-34a mediated deacetylation of p53 IL-17A or PTS induced lung injury, miR34a conditional knockout mice were treated with tamoxifen. miR34a conditional knockout mice treated with IL-17A (3 μg/mice) was administered with CSP7 and CP a day later. ATII cells isolated from these mice were screened for PAI-1, Sirt-1 and apoptotic markers. […] Further, CSP7 treatment had little effect in miR-34a^cKo mice since these mice resist IL-17A or PTS injury.
# WT mice with CS-LI [2] = experiment: Chronic CS/TSE lung injury in WT mice treated by nebulization or IP injection; format: in vivo, mouse; details: for lung volume (μCT): 20 weeks CS
# Method: Pulmonary function tests were performed immediately before CT imaging and before mice were killed, as previously described (DeCologne N et al., Eur Respir J. 35:176-85, 2010). Briefly, mice were anesthetized with a ketamine/xylazine mixture. Anesthetized mice were intubated by inserting a sterile, 20-gauge intravenous cannula through the vocal cords into the trachea. Elastance, compliance, and total lung resistance were then measured (SCIREQ, Tempe, AZ). The “snapshot perturbation method” was used to study lung function in the CBB injury model. This method measures total lung resistance, compliance, and elastance of the entire respiratory system. Increased total lung resistance in the CBB model may reflect lung contraction associated with pleural rind formation with concurrent distortion of the airways. The flexiVent was set to a tidal volume of […] at a frequency of 150 breaths/min against 2-3 cm H2O positive end-expiratory pressure, according to manufacturer's specifications. The mice were maintained under anesthesia using isofluorane throughout the pulmonary function testing.
# After ketamine/xylazine injection, mice were anesthetized further using an isoflurane/02 mixture to ensure that mice remained deeply anesthetized and to minimize spontaneous breaths. The Explore Locus Micro-CT Scanner (General Electric, GE Healthcare, Wauwatosa, WI) was used for CT imaging. CT scans were performed during full inspiration and at a resolution of […]. Lung volumes were calculated from lung renditions collected at full inspiration. Microview software was used to analyze lung volumes and render three-dimensional images (Tucker T A et al., Am J Respir Cell Mol Biol. 50:316-27, 2014).
# Wild type (WT) mice of the C57BL/6J strain (n=10/group) were kept in ambient air or were TSE for 4 hour/day, 5 days a week as described. […]
# Micro-computed Tomography (pCT) scanning and measurements of lung volume and pulmonary function. […] Lung volumes were calculated from lung renditions collected at full inspiration using Microview software. […]
# AECs from COPD lungs = AECs from COPD lungs treated in vitro for 48 h; format: cell-based, human
# WT mice with CS-LI [3] = experiment: Chronic CS/TSE lung injury in WT mice treated by nebulization or IP injection; format: in vivo, mouse
# PP2A = biological target: T1, PP2A (Mus musculus, UniProt P63330); experiment: PP2A activity assay in lung homogenates of CS exposed WT mice; format: in vivo; details: WT mice with CS-LI, Neb or IP, 4 weeks
# T1 construct: from tissue; host or cells: lung homogenates of WT C57BL/6J mice
# Method: PP2A Activity Determination and PP2A Inhibitors PP2A activity was determined using the Millipore PP2A activity assay (17-313; Millipore) (Nath S, et al., Am J Respir Cell Mol Biol. 59:695-705, 2018 December).
# Determination of protein phosphatase 2A (PP2A) activity. PP2A activity was determined in isolated AECs and lung homogenates using the PP2A activity assay kit (Millipore) (Nath et al, Am J Respir Cell Mol Biol 59:695-705, 2018. doi: 10.1165/rcmb.2018-01730C.)
# T1 sequence (P63330 whole entry): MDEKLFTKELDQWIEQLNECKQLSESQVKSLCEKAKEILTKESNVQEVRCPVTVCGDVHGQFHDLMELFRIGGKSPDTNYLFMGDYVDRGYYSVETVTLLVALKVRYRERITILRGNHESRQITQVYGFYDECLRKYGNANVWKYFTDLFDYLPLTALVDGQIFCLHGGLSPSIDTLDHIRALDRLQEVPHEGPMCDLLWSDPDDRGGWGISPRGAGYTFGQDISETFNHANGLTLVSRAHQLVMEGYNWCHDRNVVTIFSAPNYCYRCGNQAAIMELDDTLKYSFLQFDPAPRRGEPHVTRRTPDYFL
substance,measurement,setting,value
"DGIWKASFTTFTVTKYWFYR (listed as Homo sapiens) [CSP, 20 residue caveolin-1 scaffolding domain peptide]","A2EC p53, PAI-1 and apoptosis",[1],"reduced A2EC p53, PAI-1 and apoptosis in vivo"
"FTTFTVT (listed as Homo sapiens) [CSP7, heptapeptide fragment of the caveolin-1 scaffolding domain peptide CSP]",lung volume (μCT),WT mice with CS-LI [2],significantly improved
same,"lung volume, compliance, elastance and resistance","WT mice with CS-LI [2]; IP or Neb, 20 weeks TSE/CS","reduced lung volume, compliance, elastance and resistance; also recorded: trend of reversal; also recorded: significantly improved"
same,IL-17A induced serine phosphorylation of p53 (p15Sp53) in ATII cells,"[1]; IL-17A treated mice, vs saline and control peptide",inhibited
same,"A2EC p53, PAI-1 and apoptosis",[1],"reduced A2EC p53, PAI-1 and apoptosis in vivo"
same,effect in miR-34a^cKO mice,[1]; miR34a conditional knockout mice treated with IL-17A,little effect
same,BALF myeloperoxidase (MPO) activity,[1]; mice with IL-17A or PTS (10 weeks) injury,significantly reduced the MPO activity
same,CIP2A mRNA,AECs from COPD lungs,significant suppression of CIP2A mRNA
same,"MUC5AC, HDAC6, FOXA3, CAV1 and FOXA2 mRNA (qPCR)",AECs from COPD lungs,reversed by CSP7 treatment; also recorded: significantly suppressed
same,co-localization of MUC5AC/HDAC6 and Ac-Tub/LC3 (immunofluorescence),AECs from COPD lungs,co-localization was reversed
same,number of ciliated AECs and cilia length,AECs from COPD lungs,restored
same,acridine orange staining of acidic vesicles (late autophagic vacuoles),AECs from COPD lungs; 6 h,reversed by CSP7; also recorded: marked reduction in red fluorescence
same,Cav1 mRNA (qPCR),AECs from COPD lungs; 48 h,reversed
same,Ac-Tub staining in tracheal sections,WT mice with CS-LI [3]; 20 weeks TSE/CS,reversed in CSP7 treated WT mice; also recorded: improved
same,PAI-1 expression in AT2 cells,WT mice with CS-LI [3]; CS-LI WT mice,reduced
same,"total, acetylated, serine phosphorylated p53, cleaved caspase-3, β-galactosidase in AT2 cells","WT mice with CS-LI [3]; CS-LI WT mice, IP",markedly suppressed
same,MUC5AC and HDAC6 mRNA in TECs,WT mice with CS-LI [3]; CS-LI mice,significantly reduced
same,"MUC5AC, HDAC6, FOXA3, CAV1 and FOXA2 mRNA in lung",WT mice with CS-LI [3]; CS-LI mice,"significant reduction in MUC5AC, HDAC6, FOXA3, and CAV1 mRNA"
same,PP2A and CIP2A mRNA in lung,WT mice with CS-LI [3]; CS-LI mice,reversed
same,macrophages in bronchoalveolar lavage,WT mice with CS-LI [3]; CS-LI mice,significantly reduced
same,number of ciliated (Ac-Tub positive) tracheal epithelial cells,WT mice with CS-LI [3]; MTEC/TECs isolated from treated mice,reversal; also recorded: significantly reversed; also recorded: increased the number of ciliated TECs
same,H&E alveolar damage / mean linear intercept (MLI),WT mice with CS-LI [3]; Neb and IP,reversed; also recorded: significantly (P<0.0001) reduced
same,"IHC Ac-Tubulin, LC3 (and CAV1) in lung sections",WT mice with CS-LI [3]; Neb and IP,reversed in CSP7 (Neb and IP) treated WT mice
same,IHC Cav1 expression in lung sections,WT mice with CS-LI [3]; Neb and IP,overcome
same,IHC MUC5AC and HDAC6 staining in lung sections,WT mice with CS-LI [3]; Neb or IP,reversed; also recorded: remarkably improved; also recorded: markedly reduced
same,"MUC5AC, HDAC6, SPDEF, LC3, FOXA2, Ac-tubulin in lung homogenates",WT mice with CS-LI [3]; Neb or IP,alleviated TSE MUC5AC and HDAC6 expression; also recorded: reversed
same,co-localization of MUC5AC and HDAC6 in lung sections,WT mice with CS-LI [3]; Neb or IP,reversed; also recorded: markedly reduced in those treated with CSP7
same,"CAV1, p53 and PAI-1 in lung homogenates",WT mice with CS-LI [3]; via airways or systemically,"marked inhibition of CAV1, p53, and PAI-1"
same,PP2A activity / signaling,PP2A,reversed by CSP7; also recorded: improved PP2A activity
"WGIDKAFFTTSTVTYKWFRY [CP, scrambled control peptide with the same amino acid composition as CSP, reference compound]",lung volume (μCT),WT mice with CS-LI [2],persistently high lung volumes
same,"MUC5AC, HDAC6, FOXA3, CAV1 and FOXA2 mRNA (qPCR)",AECs from COPD lungs,"continued to exhibit elevated levels of MUC5AC, HDAC6, FOXA3, and CAV1 mRNA with low FOXA2 mRNA"
same,H&E alveolar damage / mean linear intercept (MLI),WT mice with CS-LI [3]; Neb and IP,continued to show 479 alveolar damage
same,IHC MUC5AC and HDAC6 staining in lung sections,WT mice with CS-LI [3]; Neb or IP,not evident
same,co-localization of MUC5AC and HDAC6 in lung sections,WT mice with CS-LI [3]; Neb or IP,Increased staining and co-localization
same,PP2A activity / signaling,PP2A,still showed loss of PP2A activity
